Experimental data as given in PMC3817062, “N-Alkylated Aminoacyl sulfamoyladenosines as Potential Inhibitors of Aminoacylation Reactions and Microcin C Analogues Containing D-Amino Acids” (PLoS ONE, 2013).
Non-standard residues stand in square brackets, D forms with d. Residues, ends and D or L forms follow the SMILES beside them. *: point of attachment. AspNHSO2(5'-O-Ado) = Nc1ncnc2c1ncn2[C@@H]1O[C@H](COS(=O)(=O)NC(=O)[C@H](CC(=O)O)N*)[C@@H](O)[C@H]1O; X1 = Nc1ncnc2c1ncn2[C@@H]1O[C@H](COS(=O)(=O)NC(=O)[C@@H](CC(=O)O)N*)[C@@H](O)[C@H]1O; For = O=C*

Tests used:
[1] = target: T1, AlaRS (Escherichia coli, UniProt P00957); details: positive control, previously shown; cited from earlier work
T1 construct: endogenous in cells; host or cells: E. coli wild-type S30 cell extract
T1 sequence (P00957 whole entry): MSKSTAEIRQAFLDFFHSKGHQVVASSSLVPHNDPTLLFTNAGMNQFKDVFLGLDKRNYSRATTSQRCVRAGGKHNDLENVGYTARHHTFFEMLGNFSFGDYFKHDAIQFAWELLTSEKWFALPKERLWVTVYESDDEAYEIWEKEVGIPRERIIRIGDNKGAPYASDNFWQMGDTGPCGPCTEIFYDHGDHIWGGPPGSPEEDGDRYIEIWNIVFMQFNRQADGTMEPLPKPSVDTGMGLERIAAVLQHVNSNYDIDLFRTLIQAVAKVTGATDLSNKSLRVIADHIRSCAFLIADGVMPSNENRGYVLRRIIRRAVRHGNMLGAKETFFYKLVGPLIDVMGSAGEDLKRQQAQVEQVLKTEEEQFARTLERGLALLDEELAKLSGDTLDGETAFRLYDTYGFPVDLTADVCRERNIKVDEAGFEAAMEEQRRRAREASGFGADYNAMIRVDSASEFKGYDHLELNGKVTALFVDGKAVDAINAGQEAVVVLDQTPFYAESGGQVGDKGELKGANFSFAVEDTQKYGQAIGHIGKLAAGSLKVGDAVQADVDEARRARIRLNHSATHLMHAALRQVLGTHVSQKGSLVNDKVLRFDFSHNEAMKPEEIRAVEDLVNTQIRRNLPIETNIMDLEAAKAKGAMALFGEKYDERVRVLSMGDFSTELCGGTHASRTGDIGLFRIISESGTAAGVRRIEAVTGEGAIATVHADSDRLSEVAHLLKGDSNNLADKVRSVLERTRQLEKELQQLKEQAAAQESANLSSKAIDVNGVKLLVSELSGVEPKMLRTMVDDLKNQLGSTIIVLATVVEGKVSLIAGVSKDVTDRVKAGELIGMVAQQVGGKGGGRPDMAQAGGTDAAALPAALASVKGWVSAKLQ
Protocol: (§1) All experiments were performed in triplicate.

[2] = target: T2, GlyRS (Escherichia coli, UniProt P00960); details: positive control, previously shown; cited from earlier work
T2 sequence (P00961 2-689): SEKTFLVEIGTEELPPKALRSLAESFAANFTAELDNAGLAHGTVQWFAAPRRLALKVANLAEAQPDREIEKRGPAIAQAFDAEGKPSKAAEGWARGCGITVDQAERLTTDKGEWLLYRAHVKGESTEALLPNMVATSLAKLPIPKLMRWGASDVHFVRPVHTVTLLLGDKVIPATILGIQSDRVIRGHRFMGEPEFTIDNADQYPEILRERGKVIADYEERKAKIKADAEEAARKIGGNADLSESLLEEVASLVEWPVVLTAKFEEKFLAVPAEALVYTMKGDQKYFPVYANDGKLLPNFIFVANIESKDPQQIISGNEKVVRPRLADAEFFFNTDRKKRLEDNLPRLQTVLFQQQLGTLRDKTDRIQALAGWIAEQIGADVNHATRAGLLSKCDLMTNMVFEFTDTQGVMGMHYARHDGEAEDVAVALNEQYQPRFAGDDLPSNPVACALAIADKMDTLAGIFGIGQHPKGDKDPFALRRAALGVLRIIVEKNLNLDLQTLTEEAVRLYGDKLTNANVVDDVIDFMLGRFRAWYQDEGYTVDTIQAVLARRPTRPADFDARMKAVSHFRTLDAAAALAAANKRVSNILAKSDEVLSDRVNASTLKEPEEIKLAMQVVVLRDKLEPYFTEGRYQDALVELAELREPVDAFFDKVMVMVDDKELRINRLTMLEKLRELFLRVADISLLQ
T2 sequence (P00960 whole entry): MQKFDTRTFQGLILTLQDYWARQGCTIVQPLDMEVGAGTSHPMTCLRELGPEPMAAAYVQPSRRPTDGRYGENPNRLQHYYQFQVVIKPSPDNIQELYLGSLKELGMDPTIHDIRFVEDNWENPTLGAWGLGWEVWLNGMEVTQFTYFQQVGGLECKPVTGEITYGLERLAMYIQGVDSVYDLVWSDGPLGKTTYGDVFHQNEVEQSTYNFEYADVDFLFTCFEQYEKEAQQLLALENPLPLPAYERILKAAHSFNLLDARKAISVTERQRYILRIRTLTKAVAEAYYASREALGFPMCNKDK

[3] = target: T3, ProRS (Escherichia coli, UniProt P16659); details: positive control, previously shown; cited from earlier work
T3 construct: endogenous in cells; host or cells: E. coli wild-type S30 cell extract
T3 sequence (P16659 whole entry): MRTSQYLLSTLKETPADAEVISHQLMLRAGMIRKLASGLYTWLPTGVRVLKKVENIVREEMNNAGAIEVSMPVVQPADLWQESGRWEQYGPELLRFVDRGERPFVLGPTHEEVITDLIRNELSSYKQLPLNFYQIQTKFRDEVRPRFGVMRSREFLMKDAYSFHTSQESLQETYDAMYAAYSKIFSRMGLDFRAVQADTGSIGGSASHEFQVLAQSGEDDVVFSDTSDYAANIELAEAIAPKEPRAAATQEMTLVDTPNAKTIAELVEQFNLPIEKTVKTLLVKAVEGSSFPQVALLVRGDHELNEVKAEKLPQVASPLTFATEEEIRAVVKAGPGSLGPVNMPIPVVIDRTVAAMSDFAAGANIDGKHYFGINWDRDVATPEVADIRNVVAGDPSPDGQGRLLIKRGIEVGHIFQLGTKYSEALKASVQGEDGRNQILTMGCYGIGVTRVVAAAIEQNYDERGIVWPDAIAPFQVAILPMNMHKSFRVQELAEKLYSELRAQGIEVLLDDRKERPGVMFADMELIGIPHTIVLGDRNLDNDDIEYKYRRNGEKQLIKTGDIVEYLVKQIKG
Protocol: as §1

[4] = tested on: McC-sensitive E. coli; test: Whole cell activity determination (OD600), all cells tested; type: cell-based; details: all cells tested (Ara-Yej strain, E. coli lacking rim genes); OD600 after 8 h, 37 °C, LB; data not shown
[5] = target: T4, LeuRS (Escherichia coli, UniProt P07813); test: In vitro tRNA aminoacylation in S30 cell extract, LeuRS; type: biochemical, E. coli; details: 50 µM, wild-type cell extract, triplicate; Figure 3
T4 construct: endogenous in cells; host or cells: E. coli wild-type S30 cell extract
T4 sequence (P07813 whole entry): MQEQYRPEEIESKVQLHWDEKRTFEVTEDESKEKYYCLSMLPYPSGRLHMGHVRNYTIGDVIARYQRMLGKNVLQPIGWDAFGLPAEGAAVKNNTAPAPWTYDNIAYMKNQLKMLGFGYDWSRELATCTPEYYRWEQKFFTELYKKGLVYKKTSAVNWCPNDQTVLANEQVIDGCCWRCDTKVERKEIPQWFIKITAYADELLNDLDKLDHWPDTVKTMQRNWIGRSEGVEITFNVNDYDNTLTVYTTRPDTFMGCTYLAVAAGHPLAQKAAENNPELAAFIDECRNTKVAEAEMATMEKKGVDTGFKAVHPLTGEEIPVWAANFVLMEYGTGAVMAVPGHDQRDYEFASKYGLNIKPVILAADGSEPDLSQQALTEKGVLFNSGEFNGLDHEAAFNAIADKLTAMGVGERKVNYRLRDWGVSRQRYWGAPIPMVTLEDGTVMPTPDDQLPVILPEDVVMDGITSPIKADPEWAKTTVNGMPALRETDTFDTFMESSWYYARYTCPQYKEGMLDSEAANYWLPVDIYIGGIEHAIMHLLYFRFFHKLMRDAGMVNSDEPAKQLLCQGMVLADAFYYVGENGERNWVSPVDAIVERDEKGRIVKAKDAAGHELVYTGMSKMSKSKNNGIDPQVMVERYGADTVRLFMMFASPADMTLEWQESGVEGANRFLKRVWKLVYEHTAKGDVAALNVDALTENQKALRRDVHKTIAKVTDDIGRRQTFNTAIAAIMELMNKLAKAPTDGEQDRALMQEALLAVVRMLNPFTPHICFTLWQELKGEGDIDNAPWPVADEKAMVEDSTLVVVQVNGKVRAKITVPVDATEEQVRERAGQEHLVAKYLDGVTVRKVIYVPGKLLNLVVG
Protocol: (§2) The growth inhibitory properties for all new compounds were determined by measuring the optical density reached by cultures of McC-sensitive E. coli in wells of microtiter plates in the presence of various concentrations of the respective inhibitors. As shown earlier, the intracellular target of McC analogs is determined by the C-terminal amino acid, which remains attached onto the sulfamoyladenosine following intracellular metabolism. To facilitate activity evaluation and the mechanism of action studies of newly synthesized compounds, an E. coli tester strain Ara-Yej (BW39758) was used, where the yejABEF operon is under control of the arabinose-inducible araBAD promoter. […] In addition to the Ara-Yej strain, E. coli lacking rim genes (and therefore hypersensitive to McC) was used as a tester strain. […] In in vitro aminoacylation experiments, compound 3 was tested for its potential to inhibit ProRS, GlyRS and AlaRS and compound 2 was tested for its ability to inhibit LeuRS in a wild-type cell extract. Established inhibitors of these enzymes are the respective 5’-O-[N-[L-aminoacyl]-sulfamoyl]adenosines: Pro-SA, Gly-SA, Ala-SA and Leu-SA [2-4]. […]
(§3) 1 μL of solution containing inhibitor, 3 μL of E. coli S30 extracts was added. […] Following the addition of scintillation liquid, the amount of radioactivity was determined in a scintillation counter.

[6] = target: T3, ProRS; test: In vitro tRNA aminoacylation in S30 cell extract, ProRS; type: biochemical, E. coli; details: 50 µM, wild-type cell extract, triplicate; Figure 3
Protocol: as §2, §3

[7] = target: T1, AlaRS; test: In vitro tRNA aminoacylation in S30 cell extract, AlaRS; type: biochemical, E. coli; details: 50 µM, wild-type cell extract, triplicate; Figure 3
Protocol: as §2, §3

[8] = target: T2, GlyRS; test: In vitro tRNA aminoacylation in S30 cell extract, GlyRS; type: biochemical, E. coli; parameters: endogenous in cells; host or cells: E. coli wild-type S30 cell extract; details: 50 µM, wild-type cell extract, triplicate; Figure 3
Protocol: as §2, §3

[9] = tested on: peptidases PepA, PepB and PepN; test: Metabolism (processing) of the peptide chain by peptidases, release of the active moiety; type: in vitro ADME; details: E. coli S30 cell extracts; concluded from aminoacylation inhibition experiments
From the text: This is a somewhat expected result as it has frequently been shown that the introduction of (D)-amino acids can prevent the hydrolysis by peptidases.
Compounds 5-7 were especially designed to circumvent this problem; all three compounds contain L-amino acids at the sixth and seventh position, allowing endopeptidases to cleave between these two L-amino acids, resulting in release of the active moiety. […] Also the modification in compound 6, inspired by albomycin whereby pepN hydrolyzes the peptide bond between a serine and a modified amino acid carrying an acidic side chain [22], could not rescue the activity. […] Whether or not incorporation of (D)-amino acids in the transport peptide part interferes with uptake of the McC derivatives by the YejABEF transporter is less relevant here, as in vitro tests already show lack of activity. Additional reduced uptake of the analogues 4-7 however cannot be excluded.
Cells were grown in 50 mL LB-medium. After centrifuging at 3000 × g for 10 min. the supernatant was discarded and the pellet was resuspended in 40 mL buffer containing: Tris.HCl or Hepes.KOH (pH = 8.0) (20 mM), MgCl2 (10 mM), KCl (100 mM). […]
as §3

[10] = target: T5, AspRS (Escherichia coli, UniProt P21889); test: In vitro tRNA aminoacylation in S30 cell extracts, AspRS; type: biochemical, E. coli; details: for inhibition of AspRS in vitro: aminoacylation in cell extracts, compound needs no metabolism
T5 construct: endogenous in cells; host or cells: S30 extracts of E. coli ΔrimL, ΔpepABN and Δdtd cells
T5 sequence (P21889 whole entry): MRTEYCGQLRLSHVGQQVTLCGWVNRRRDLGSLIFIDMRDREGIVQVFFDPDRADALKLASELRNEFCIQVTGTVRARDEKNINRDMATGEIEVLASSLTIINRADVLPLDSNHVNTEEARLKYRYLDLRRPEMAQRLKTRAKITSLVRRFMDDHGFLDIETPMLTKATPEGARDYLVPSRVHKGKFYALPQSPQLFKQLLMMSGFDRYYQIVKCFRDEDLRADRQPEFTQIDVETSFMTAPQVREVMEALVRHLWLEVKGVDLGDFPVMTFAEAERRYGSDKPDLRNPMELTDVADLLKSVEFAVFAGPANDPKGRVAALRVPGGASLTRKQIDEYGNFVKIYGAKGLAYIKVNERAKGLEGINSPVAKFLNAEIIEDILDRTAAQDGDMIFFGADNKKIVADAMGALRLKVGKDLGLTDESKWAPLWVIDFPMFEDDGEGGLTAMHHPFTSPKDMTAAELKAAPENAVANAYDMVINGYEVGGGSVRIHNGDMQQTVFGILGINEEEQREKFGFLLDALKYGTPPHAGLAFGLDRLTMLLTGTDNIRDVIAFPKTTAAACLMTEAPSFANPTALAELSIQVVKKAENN
Protocol: Figure 5 Aminoacylation experiments of the McC analogues containing (D)-amino acids at 50 µM. Upper panel: 30 min incubation with a cell extract deficient of RimL. Middle panel: 30 min incubation with a cell extract deficient of PepA, PepB and PepN. Lower panel: Comparison of two McC analogues targeting AspRS, compound 8 having a C-terminal D-configuration, compound 1f having a C-terminal (L)-configuration. Incubation was done with two different cell extracts, lacking either DTD or RimL.
To investigate whether compound 8 would be more resistant than compound 1f to MccF-catalyzed hydrolysis and/or MccE/RimL-catalyzed acetylation, and to investigate a possible role of DTD, a time-course of tRNA^Asp aminoacylation inhibition was followed in two different cell extracts, one prepared from cells lacking Rim proteins, and another from cells lacking DTD. From Figure 5 (lower panel) it can be observed that at time point zero, i.e., immediately after addition of the compounds, there was no inhibition since the compounds were still unmetabolized. […] Upon further incubation, the reaction recovered from inhibition for both compounds. For compound 8 this effect was more pronounced than for compound 1f, especially in cell extracts prepared from cells lacking DTD proteins.
To assess the degree of inhibition of the aminoacylation reaction, in vitro tests were performed using the relevant S30 cell extracts.
Cells were grown in 50 mL LB-medium. After centrifuging at 3000 × g for 10 min. the supernatant was discarded and the pellet was resuspended in 40 mL buffer containing: Tris.HCl or Hepes.KOH (pH = 8.0) (20 mM), MgCl2 (10 mM), KCl (100 mM). The cell-suspension was centrifuged again at 4800 rpm. This procedure was repeated 2 times. The pellet was resuspended in 1 mL of the following buffer Tris.HCl or Hepes.KOH (pH = 8.0) (20 mM), MgCl2 (10 mM), KCl (100 mM), DTT (1 mM) and kept at 0 °C. Subsequently, the cells were sonicated for 10 sec. and left at 0 °C for 10 min. This procedure was repeated for 5-8 times. The lysate was centrifuged at 15000 g for 30 min at +4 °C.
1 μL of solution containing inhibitor, 3 μL of E. coli S30 extracts was added. Next, 16 μL of the following aminoacylation mixture was added: Tris.HCl (30mM, pH 8.0), DTT (1 mM), bulk of E. coli tRNA (5 g/l), ATP (3 mM), KCl (30 mM), MgCl2 (8 mM), and the specified, radio labeled amino acid (40 μM). The reaction products were precipitated in cold 10% TCA on Whatman 3MM papers, 5 min. after the aminoacylation mixture was added. The aminoacylation reaction was carried out at room temperature. Depending on whether or not processing was needed, variable time intervals were included between the addition of the cell-extract and the addition of the aminoacylation mixture. After thorough washing with cold 10% TCA, the papers were washed twice with acetone and dried on a heating plate. Following the addition of scintillation liquid, the amount of radioactivity was determined in a scintillation counter.

[11] = time course, extract from cells lacking DTD, at 15 min

**Q.** For C[C@H](N)C(=O)NS(=O)(=O)OC[C@H]1O[C@@H](n2cnc3c(N)ncnc32)[C@H](O)[C@@H]1O [Ala-SA], which “inhibition of AlaRS” value [1] is on record?
**A.** Its value is “potent inhibitors”.

**Q.** With NCC(=O)NS(=O)(=O)OC[C@H]1O[C@@H](n2cnc3c(N)ncnc32)[C@H](O)[C@@H]1O [Gly-SA] as the molecule, how does the “inhibition of GlyRS” value [2] read?
**A.** Its value is “potent inhibitors”.

**Q.** Which “inhibition of ProRS” value [3] does the source give for Nc1ncnc2c1ncn2[C@@H]1O[C@H](COS(=O)(=O)NC(=O)[C@@H]2CCCN2)[C@@H](O)[C@H]1O [Pro-SA, 5’-O-[N-[(L)-prolyl]-sulfamoyl]adenosine] here?
**A.** The value was “potent inhibitors”.

**Q.** With CN[C@@H](CC(C)C)C(=O)NS(=O)(=O)OC[C@H]1O[C@@H](n2cnc3c(N)ncnc32)[C@H](O)[C@@H]1O [compound 2, 5’-O-[N-[(L)-N-methyl-leucyl]-sulfamoyl]adenosine] as the molecule, how does the “whole-cell activity (growth inhibition)” value [4] read?
**A.** Its value is “inactive”.

**Q.** What about the “inhibition of LeuRS aminoacylation” value [5] of the same molecule?
**A.** The value was “inactive”.

**Q.** Which “whole-cell activity (growth inhibition)” value [4] does the source give for CNCC(=O)NS(=O)(=O)OC[C@H]1O[C@@H](n2cnc3c(N)ncnc32)[C@H](O)[C@@H]1O [compound 3, sarcosyl-sulfamoyladenosine] here?
**A.** The value was “inactive”.

**Q.** And the “inhibition of ProRS aminoacylation” value [6]?
**A.** The value was “does not show any major inhibitory binding affinity”.

**Q.** What about the “inhibition of AlaRS aminoacylation” value [7] of the same molecule?
**A.** The value was “could not be targeted”.

**Q.** And the “inhibition of GlyRS aminoacylation” value [8]?
**A.** The value was “could not be targeted”.

**Q.** Which “metabolism by the peptidases (release of the active moiety)” value [9] does the source give for CSCC[C@H](NC=O)C(=O)N[C@H](CCCNC(=N)N)C(=O)N[C@@H](C(=O)NCC(=O)N[C@H](CC(N)=O)C(=O)N[C@H](C)C(=O)N[C@@H](CC(=O)O)C(=O)NS(=O)(=O)OC[C@H]1O[C@@H](n2cnc3c(N)ncnc32)[C@H](O)[C@@H]1O)[C@H](C)O [compound 4] (For-M[dR][dT]G[dN][dA]-{AspNHSO2(5'-O-Ado)}) here?
**A.** Its value is “not capable of hydrolyzing”.

**Q.** Which “reduction of esterification of Asp-C14 to tRNAAsp” value ([10]; time course, extract from cells lacking DTD, after 60 min) does the source give for CSCC[C@H](NC=O)C(=O)N[C@@H](CCCNC(=N)N)C(=O)N[C@H](C(=O)NCC(=O)N[C@@H](CC(N)=O)C(=O)N[C@@H](C)C(=O)N[C@H](CC(=O)O)C(=O)NS(=O)(=O)OC[C@H]1O[C@@H](n2cnc3c(N)ncnc32)[C@H](O)[C@@H]1O)[C@@H](C)O [compound 8] (For-MRTGNA-X1) here?
**A.** Its value is 44%.

**Q.** What about the “incorporation of Asp-C14 into tRNAAsp” value [10, 11] of the same molecule?
**A.** Its value is 11%.

**Q.** And the “inhibition of tRNAAsp aminoacylation” value [10, 11]?
**A.** Its value is 89%.

**Q.** What about the “metabolism by the peptidases (release of the active moiety)” value [9] of the same molecule?
**A.** The value was “can metabolize”.

**Q.** For Nc1ncnc2c1ncn2[C@@H]1O[C@H](COS(=O)(=O)NC(=O)[C@H](N)CC(=O)O)[C@@H](O)[C@H]1O [compound 9, (D)-aspartyl-sulfamoyladenosine], which “inhibition of AspRS in vitro” value [10] is on record?
**A.** The value was “can also inhibit AspRS”.

**Q.** What about the “inhibition of AspRS in vitro” value ([10]; listed as (D)-D-SA) of the same molecule?
**A.** Its value is “equally inhibitory”.

**Q.** With Nc1ncnc2c1ncn2[C@@H]1O[C@H](COS(=O)(=O)NC(=O)[C@@H](N)CC(=O)O)[C@@H](O)[C@H]1O [compound 10, (L)-aspartyl-sulfamoyladenosine, reference compound] as the molecule, how does the “inhibition of AspRS in vitro” value [10] read?
**A.** Its value is “equally inhibitory”.
